Test results reported in the supplement of paper PMC10477900.

How the values were obtained:
HCT116 [1] = experiment: viability inhibition vs untreated; higher = more cytotoxic; settings: 72 h
HCT116 [2] = settings: 72 h
Experimental: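 HCT116 control and MTA1-KO (CRISPR) HCT116 cells were seeded in 384-well plates (800 cells/well), treated 16 h later with 237 metabolism-related anticancer drugs at five doses (10 uM, 2 uM, 400 nM, 80 nM, 16 nM) for 72 h, two replicates; viability by CCK8. Values are % inhibition of viability relative to untreated cells, plus fitted IC50.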

SMILES	viability inhibition (HCT116 [1]; genotype: MTA1-KO, 16 nM)	viability inhibition (HCT116 [1]; genotype: MTA1-KO, 80 nM)	viability inhibition (HCT116 [1]; genotype: MTA1-KO, 400 nM)	viability inhibition (HCT116 [1]; genotype: MTA1-KO, 2000 nM)	viability inhibition (HCT116 [1]; genotype: MTA1-KO, 10000 nM)	viability inhibition (HCT116 [1]; genotype: control, 16 nM)	viability inhibition (HCT116 [1]; genotype: control, 80 nM)	viability inhibition (HCT116 [1]; genotype: control, 400 nM)	viability inhibition (HCT116 [1]; genotype: control, 2000 nM)	viability inhibition (HCT116 [1]; genotype: control, 10000 nM)	IC50 (HCT116 [2]; genotype: MTA1-KO)	IC50 (HCT116 [2]; genotype: control)
CC[C@H](C)C(=O)O[C@H]1C[C@H](O)C=C2C=C[C@H](C)[C@H](CC[C@@H](O)C[C@@H](O)CC(=O)O)[C@H]21 [Pravastatin sodium]	9.21%	-16.3%	-12.8%	-12.2%	-1.55%	10.2%	-15.3%	-11.6%	-6.15%	6.05%	> 10 µM	> 10 µM
CN(C)CCCCC(=O)Nc1ccc(NC(=S)NC(=O)c2ccc(C(C)(C)C)cc2)cc1 [Tenovin-6]	-14.1%	-19.6%	-23.8%	-20.1%	43.5%	-8.39%	1.22%	8.03%	5.54%	67.5%	> 10 µM	7.71 µM
NNC(=O)c1ccncc1 [Isoniazid]	-5.84%	-18.3%	-14.4%	-18.3%	-0.042%	-10.3%	-11.9%	-11.5%	1.11%	38%	> 10 µM	> 10 µM
Nc1nc(Cl)nc2c1ncn2[C@@H]1O[C@H](CO)[C@@H](O)[C@@H]1F [Clofarabine]	-2.4%	4.43%	55.5%	80.4%	75.8%	-9.53%	-5%	88.4%	88.9%	92.8%	0.257 µM	0.141 µM
CC(C)CC(N)=O [Isovaleramide]	-15.6%	-17.2%	-11.3%	-17.2%	-13%	-6.22%	-6.16%	-2.21%	-1.96%	-10.4%	> 10 µM	> 10 µM
CCc1nc(N)nc(N)c1-c1ccc(Cl)cc1 [Pyrimethamine]	-6.42%	-11.6%	-0.866%	10.9%	60.5%	2.52%	7.55%	13.3%	20.1%	82.3%	6.54 µM	4.89 µM
CO[C@H]1C[C@@H]2CC[C@@H](C)[C@@](O)(O2)C(=O)C(=O)N2CCCC[C@H]2C(=O)O[C@H]([C@H](C)C[C@@H]2CC[C@@H](O)[C@H](OC)C2)CC(=O)[C@H](C)/C=C(\C)[C@@H](O)[C@@H](OC)C(=O)[C@H](C)C[C@H](C)/C=C/C=C/C=C/1C [Rapamycin]	4.81%	4.98%	3.36%	17.6%	18.4%	-3%	-2.75%	2.91%	0.723%	24.6%	> 10 µM	> 10 µM
O=c1[nH]c(-c2ccc(C(F)(F)F)cc2)nc2c1CSCC2 [XAV939]	1.12%	-14.7%	-18%	-23.8%	-14.9%	4.99%	12.8%	0.365%	4.5%	0.791%	> 10 µM	> 10 µM
O=C1CC(c2c[nH]c3ccc(F)cc23)C(=O)N1 (stereo not drawn)	7.19%	3.94%	6.53%	3.06%	34%	15.5%	-12.9%	-15.6%	-1.97%	11.6%	> 10 µM	> 10 µM
Nc1cc(C(F)(F)F)c(-c2nc(N3CCOCC3)nc(N3CCOCC3)n2)cn1 [PI3K-IN-2]	23.9%	23%	49.3%	88.7%	90.2%	-12.8%	0.462%	27.1%	73.3%	83.3%	0.468 µM	0.7 µM
OCc1ccc(-c2nn(Cc3ccccc3)c3ccccc23)o1 [Lificiguat]	-2.39%	4.47%	8.63%	37.6%	92.2%	0.501%	5.33%	-0.629%	22.8%	100%	2.7 µM	2.38 µM
O=C(c1ccc(NS(=O)(=O)c2cccc3cccnc23)cc1)N1CCN(CC2CC2)CC1 [Mitapivat]	1.32%	0.728%	-12.6%	-14.4%	-2.88%	-8.53%	-14.2%	-22.8%	-10.3%	-12.3%	> 10 µM	> 10 µM
COc1ccc([C@@H]2OC[C@H]3[C@@H]2CO[C@@H]3c2ccc(O[C@@H]3O[C@H](CO)[C@@H](O)[C@H](O)[C@H]3O)c(OC)c2)cc1OC [Forsythin]	5.1%	-3.89%	-0.379%	2.87%	27.7%	8.22%	24%	15.4%	-3.75%	24.5%	> 10 µM	> 10 µM
Nc1nc(NC2CC2)cc(-c2cccc(Cl)c2Cl)n1 [TH588]	-0.076%	6.2%	2.73%	14.7%	80.3%	-7.89%	-5.19%	-7.31%	-7.46%	74%	5.34 µM	8.67 µM
